Patent US20250360057A1, “ENHANCING DENTIN BONDING DURABILITY USING QUATERNARY PYRIDINIUM SALTS” (ADA Science and Research Institute LLC, priority 2022, published 2025)

Experiments:
Type in all cases: physicochemical
[1] = Degree of (vinyl) conversion (DC) of cured dental adhesive/resin by FT-IR (ATR); settings: for Degree of Conversion: resin 70 wt % Bis-GMA / 30 wt % TEGDMA with CQ/4E; for increase of Degree of Conversion / change of Degree of Conversion (in words) / decrease of Degree of Conversion: versus resin without additive; for increase of Degree of Conversion: 70 wt % Bis-GMA / 30 wt % TEGDMA, CQ/4E; for change of Degree of Conversion (in words) / decrease of Degree of Conversion: Bis-GMA/TEGDMA resin; for Degree of Conversion (%): approx 0.25 wt % additive; for effect on DC (in words): both adhesives (SB and B6H4)
[2] = target: T1, pseudocholine esterase from equine serum (PCE) (Equus caballus, UniProt P81908); experiment: Biostability: AFM-based step height change (ΔH) under enzymatic challenge
T1 construct: pseudocholine esterase from equine serum; purchased Sigma C7512; host or cells: equine serum
T1 sequence (P81908 whole entry): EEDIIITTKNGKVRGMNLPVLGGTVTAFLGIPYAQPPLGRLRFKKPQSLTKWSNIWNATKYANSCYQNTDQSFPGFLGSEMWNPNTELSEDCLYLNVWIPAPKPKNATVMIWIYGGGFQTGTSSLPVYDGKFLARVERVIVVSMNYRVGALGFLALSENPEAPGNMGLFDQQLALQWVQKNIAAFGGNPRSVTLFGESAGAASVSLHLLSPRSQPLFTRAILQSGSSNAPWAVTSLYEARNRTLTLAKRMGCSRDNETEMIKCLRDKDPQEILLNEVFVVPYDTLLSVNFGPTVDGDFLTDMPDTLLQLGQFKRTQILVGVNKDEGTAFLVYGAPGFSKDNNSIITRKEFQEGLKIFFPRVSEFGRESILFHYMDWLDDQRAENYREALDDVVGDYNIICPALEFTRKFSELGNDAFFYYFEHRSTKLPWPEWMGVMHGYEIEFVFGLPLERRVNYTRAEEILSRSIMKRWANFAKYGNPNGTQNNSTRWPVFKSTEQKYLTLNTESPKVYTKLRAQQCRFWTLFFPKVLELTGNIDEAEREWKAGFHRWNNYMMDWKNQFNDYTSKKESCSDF
Text: Various embodiments of the present application can be better understood by reference to the following Examples which are offered by way of illustration. The scope of the present application is not limited to the Examples given herein. The enzymatic challenge measurement method described herein is described in Wang X, Song S, Chen L, Stafford CM, Sun J, Acta Biomater., 2018, 74, 326, and Yamauchi S, Wang X, Egusa H, Sun J. “High-performance dental adhesives containing an ether-based monomer” Journal of Dental Research, 2020, 99, 189, which are both incorporated by reference herein in their entireties.
Biostability of the dental materials such as resins and adhesives is of critical importance to their durability. These materials may break down in the oral environment, which may be due to enzymatic and/or bacterial challenges, which can result in failure of the restoration and secondary caries. The stability against enzymatic challenges of dental materials including adhesives and resins, with and without additives, was evaluated using an atomic force microscopy (AFM)-based method, described by Wang et al., in “Short-time dental resin biostability and kinetics of enzymatic degradation”, Acta Biomaterialia, Volume 74, 1 Jul. 2018, Pages 326-333, incorporated herein in its entirety. Briefly, this method allows evaluation of materials by assessing the step height (H) and the changes in the step height (ΔH), that are caused by enzymatic exposure. The ΔH values are caused as material exposed to salivary enzymes or the like is removed due to degradation of the exposed material.
The stability of SB was compared to the same adhesive incorporating Azo-QPS-C16 as an additive at approximately 0.25 wt %. Samples were prepared according to the method described by Wang, and were exposed to either pseudocholine esterase from equine serum (PCE, Product No. C7512, Sigma, Saint Louis, MO, USA) were reconstituted in saline solution containing 40 mM magnesium chloride and 99 mM of sodium chloride following vender's instruction, or a control solution without PCE for various times up to 72 hours. […] For the SB sample exposed to PCE, the ΔH value increased to about 175 nm. In comparison, the addition of approximately 0.25 wt % Azo-QPS-C16 reduced the ΔH values after 72 hours to about 50 nm and about 60 nm for the control and PCE-exposed samples, respectively, thus showing inclusion of Azo-QPC-C16 in the adhesive improved the stability dramatically.

[3] = target: T1, pseudocholine esterase from equine serum (PCE); experiment: as above; remark: listed apart in the source
[4] = Glass transition temperature (Tg) / tan δ peak by dynamic mechanical analysis (DMA)
Procedure: The degree of conversion (DC) and glass transition temperature (Tg) of adhesives and resins with or without the additives (such as Azo-QPS-C16) were measured by Fourier transform infrared (FTIR) spectrometer and dynamic mechanical analyzer (DMA), respectively. The stability against enzymatic challenges of four adhesives (and resins) was evaluated using an atomic force microscopy (AFM)-based method. The adhesives' bonding strength and bonding durability are determined and compared based on shear bond strength (SBS), micro-tensile bond strength (pTBS), and bonding durability under the challenges of thermal cycling.
The glass transition temperature (Tg) of adhesives with or without additive were measured by dynamic mechanical analysis (DMA).

[5] = B6H4, approximately 0.25 wt % additive

C=C(C)C(=O)Oc1ccc(/N=N/c2cc[n+](CC)cc2)cc1.[Br-] [Azo-QPS-C2-MA]
Degree of Conversion ([1]; 0.5 wt % additive): 72.3%
increase of Degree of Conversion ([1]; 0.5 wt % additive): 2.1%

C=C(C)C(=O)Oc1ccc(/N=N/c2ccncc2)cc1 [Azo-Py-MA, reference compound]
Degree of Conversion ([1]; 0.5 wt % additive): 70.2%
change of Degree of Conversion (in words) [1]: no change

Oc1ccc(/N=N/c2ccncc2)cc1 [Azo-Py-OH, reference compound]
Degree of Conversion ([1]; 0.5 wt % additive): 68.4%
decrease of Degree of Conversion [1]: 1.8%

CC(C)C(=O)Oc1ccc(/N=N/c2cc[n+](CCCCCBr)cc2)cc1.[Br-] [Br-C6-Azo-Py-iBu]
Degree of Conversion ([1]; 0.5 wt % additive): 75.1%
increase of Degree of Conversion ([1]; 0.5 wt % additive): 4.9%

C=C(C)C(=O)OCCCCCC[n+]1ccc(/N=N/c2ccc(OC(=O)C(C)C)cc2)cc1.[Br-] [MA-C6-Azo-Py-iBu]
ΔH ([2]; Scotchbond (SB), PCE (FIG. 7)): ~70 nm
ΔH ([2]; Scotchbond (SB), control (FIG. 7)): approximately 50 nm
Degree of Conversion ([1]; 0.5 wt % additive): 74.9%
increase of Degree of Conversion ([1]; 0.5 wt % additive): 4.7%
ΔH ([3]; B6H4, approximately 0.25 wt % additive, PCE (FIG. 6)): ~65 nm
ΔH ([3]; B6H4, approximately 0.25 wt % additive, control (FIG. 6)): approximately 50 nm

CC(C)C(=O)Oc1ccc(/N=N/c2ccncc2)cc1 [Azo-Py-iBu, (E)-4-(pyridin-4-yldiazenyl)phenyl isobutyrate, reference compound]
Degree of Conversion ([1]; 0.5 wt % additive): 66.7%
decrease of Degree of Conversion [1]: 3.5%

c1cc(N=Nc2ccncc2)ccn1 [reference compound]
change of Degree of Conversion (in words) [1]: No change

c1ccc(/N=N/c2ccccc2)cc1 [reference compound]
change of Degree of Conversion (in words) [1]: No change

c1cc(CCc2ccncc2)ccn1 [reference compound]
change of Degree of Conversion (in words) [1]: No change

C=C(C)C(=O)Oc1ccc(/N=N/c2cc[n+](CCCCCCCCCCCCCCCC)cc2)cc1.[Br-] [Azo-QPS-C16, (E)-1-hexadecyl-4-((4-(methacryloyloxy)phenyl)diazenyl)-pyridinium bromide]
ΔH ([2]; SB, approximately 0.25 wt % additive, PCE-exposed, after 72 hours): about 60 nm
ΔH ([2]; SB, approximately 0.25 wt % additive, control solution without PCE, after 72 hours): about 50 nm
DC (%) ([1]; B6H4/CQ/4E, 0.1 wt % additive): 76.9 ± 0.7%
DC (%) ([1]; B6H4/CQ/4E, 0.25 wt % additive): 79.5 ± 0.8%
DC (%) ([1]; B6H4/CQ/4E, 0.5 wt % additive): 80.5 ± 1.2%
DC (%) ([1]; B6H4/CQ/4E, 1.0 wt % additive): 81.3 ± 1.4%
DC (%) ([1]; B6H4/CQ/4E, 1.25 wt % additive): 76.2 ± 1.5%
DC (%) ([1]; B6H4/CQ/4E, 1.5 wt % additive): 64.4 ± 2.2%
DC (%) ([1]; B6H4/CQ/4E, 2.0 wt % additive): 26.0 ± 2.6%
Degree of Conversion (%) ([1]; EBSE adhesive): 73.7 ± 0.6%
Degree of Conversion (%) ([1]; PBNT adhesive): 66.4 ± 0.7%
Degree of Conversion (%) ([1]; SBP adhesive): 70.3 ± 0.5%
Degree of Conversion (%) ([1]; SUP adhesive): 72.5 ± 1.0%
DC (%) ([1]; Scotchbond Multi-Purpose (SB), 0.1 wt % additive): 76.1 ± 0.8%
DC (%) ([1]; Scotchbond Multi-Purpose (SB), 0.25 wt % additive): 78.6 ± 0.9%
DC (%) ([1]; Scotchbond Multi-Purpose (SB), 0.5 wt % additive): 79.2 ± 1.1%
DC (%) ([1]; Scotchbond Multi-Purpose (SB), 1.0 wt % additive): 79.5 ± 1.4%
DC (%) ([1]; Scotchbond Multi-Purpose (SB), 1.25 wt % additive): 75.5 ± 1.5%
DC (%) ([1]; Scotchbond Multi-Purpose (SB), 1.5 wt % additive): 55.0 ± 1.4%
DC (%) ([1]; Scotchbond Multi-Purpose (SB), 2.0 wt % additive): 12.8 ± 3.1%
Degree of Conversion (%) ([1]; XIV adhesive): 74.2 ± 1.1%
effect on DC (in words) ([1]; approximately 0.1 wt % additive): enhances the DC of both adhesives
effect on DC (in words) ([1]; more than approximately 1.25 wt % additive (about 1.5 or 2 wt %)): significant DC decrease
Degree of Conversion ([1]; 0.5 wt % additive): 74.5%
increase of Degree of Conversion ([1]; 0.5 wt % additive): 4.3%
ΔH ([3]; B6H4 with CQ/4E, approximately 0.25 wt % additive, control, after 72 hours): about 50 nm
ΔH ([3]; B6H4 with CQ/4E, approximately 0.25 wt % additive, exposed to PCE, after 72 hours): about 70 nm
effect on ΔH values (in words) ([3]; adhesives PBNT, SBP, SUP, EBSE and XIV, approximately 0.25 wt % additive versus no additive (FIGS. 8-12)): decreased the ΔH values
glass transition temperature (Tg) [4, 5]: increases
tan δ peak [4, 5]: narrowed
tan δ peak ([4]; SB, approximately 0.25 wt % additive): narrowed

C=C(C)C(=O)OCCNC(=O)OCCCCCCCC[n+]1ccc(/N=N/c2ccc(OC(=O)C(C)C)cc2)cc1.[Br-] [MA-CB13-Azo-QPS-iBu]
biostability of the adhesives (in words) ([2]; added to dental adhesives): has not been demonstrated to improve the biostability
Degree of Conversion ([1]; 0.5 wt % additive): 70.7%
increase of Degree of Conversion ([1]; 0.5 wt % additive): 0.5%
